Results taken from patent publication US11760773B2, “Small molecule drug conjugates of gemcitabine monophosphate” (MaveriX Oncology, Inc., priority 2018, dated 2023).
Structures can show the parent of a compound that is named as a salt. Where two headings read alike, the source gives them in different places.

What was measured:
UT-SCC-5 = experiment: Tumor cell proliferation (alamarBlue) cytotoxicity assay, UT-SCC-5; type: cell-based, human
Protocol: (§1) A tumor cell proliferation assay was used to determine cytotoxicity IC50 values for the phosphate prodrug Compounds 1-9, the parent non-phosphorylated SMDC parent compounds, and the effector (gemcitabine) across eight primary early-passage human head and neck squamous cell carcinoma cell lines including UT-SCC-5, UT-SCC-8, UT-SCC-9, UT-SCC-10, UT-SCC-14, UT-SCC-16A, UT-SCC-16B, and UT-SCC-24A.
(§2) UTSCC cells were seeded at 4000 cells/100 I/well on 96-well black clear-bottom tissue culture plate. Cells were incubated at 37° C. and 5% CO2 overnight to allow them to recover and re-attach. The next day cells were treated with the test compound (0-100 μM) for 72 hours. After treatment, cell proliferation was measured by Fluorescent quantitation of alamarBlue reagent. The alamarBlue assay incorporates a fluorometric/colorimetric growth indicator based on detection of metabolic activity. Specifically, resazurin, the active ingredient of alamarBlue reagent, is blue in color and virtually non-fluorescent. Upon entering cells, resazurin is reduced to resorufin, a compound that is red in color and highly fluorescent.
(§3) Continued cell growth maintains a reduced environment, therefore increasing the overall fluorescence and color of the media surrounding cells. The fluorescence intensity of alamarBlue reagent was directly proportional to cell number. To perform the alamarBlue assay, 10 I of alamarBlue reagent was added to each well and the plate was incubated at 37° C. for an additional 2 hour. Fluorescence intensity was measured at an excitation of 530 nm and an emission of 590 nm using a BioTek Synergy™ 2 microplate reader.
(§4) Cell proliferation assays in triplicate were performed at each concentration. The fluorescent intensity data were analyzed using the computer software, Graphpad Prism. In the absence of the compound, the fluorescent intensity (Ft) in each data set was defined as 100%. In the absence of cells, the fluorescent intensity (Fb) in each data set was defined as 0%. The percent cell in the presence of each compound was calculated according to the following equation: % cell=(F−Fb)/(Ft−Fb), where F=the fluorescent intensity in the presence of the compound, Fb=the fluorescent intensity in the absence of cells, and Ft=the fluorescent intensity in the absence of the compound. The values of % cell versus a series of compound concentrations were then plotted using non-linear regression analysis of Sigmoidal dose-response curve generated with the equation Y=B+(T−B)/1+10^((Log EC50-X)×Hill Slope) where Y=percent cell, B=minimum percent cell, T=maximum percent cell, X=logarithm of compound and Hill Slope=slope factor or Hill coefficient. The IC50 value was determined by the concentration causing a half-maximal percent activity.

UT-SCC-8 = experiment: Tumor cell proliferation (alamarBlue) cytotoxicity assay, UT-SCC-8; type: cell-based, human
Protocol: as §1, §2, §3, §4

UT-SCC-9 = experiment: Tumor cell proliferation (alamarBlue) cytotoxicity assay, UT-SCC-9; type: cell-based, human
Protocol: as §1, §2, §3, §4

UT-SCC-10 = experiment: Tumor cell proliferation (alamarBlue) cytotoxicity assay, UT-SCC-10; type: cell-based, human
Protocol: as §1, §2, §3, §4

UT-SCC-14 = experiment: Tumor cell proliferation (alamarBlue) cytotoxicity assay, UT-SCC-14; type: cell-based, human
Protocol: as §1, §2, §3, §4

UT-SCC-16A = experiment: Tumor cell proliferation (alamarBlue) cytotoxicity assay, UT-SCC-16A; type: cell-based, human
Protocol: as §1, §2, §3, §4

UT-SCC-16B = experiment: Tumor cell proliferation (alamarBlue) cytotoxicity assay, UT-SCC-16B; type: cell-based, human
Protocol: as §1, §2, §3, §4

UT-SCC-24A = experiment: Tumor cell proliferation (alamarBlue) cytotoxicity assay, UT-SCC-24A; type: cell-based, human
Protocol: as §1, §2, §3, §4

[1] = tested on: primary head and neck squamous cell carcinoma cell lines; experiment: Cytotoxicity, average over the eight UT-SCC cell lines; type: cell-based, human
Protocol: as §1
UTSCC cells were seeded at 4000 cells/100 I/well on 96-well black clear-bottom tissue culture plate. Cells were incubated at 37° C. and 5% CO2 overnight to allow them to recover and re-attach. The next day cells were treated with the test compound (0-100 μM) for 72 hours. After treatment, cell proliferation was measured by Fluorescent quantitation of alamarBlue reagent. […]
as §3, with “To perform the alamarBlue assay, 10 I of alamarBlue reagent was added to each well and the plate was incubated at 37° C. for an additional 2 hour.” left out
Cell proliferation assays in triplicate were performed at each concentration. The fluorescent intensity data were analyzed using the computer software, Graphpad Prism. […] The IC50 value was determined by the concentration causing a half-maximal percent activity.

Solubility / formulation = type: physicochemical; conditions: water; read-out: soluble in water
[2] = Comparative plasma PK of Compound 1 versus Int 1-4 in male CD-1 mice (study b); type: in vivo; conditions: male, CD-1, mouse, iv; for AUC(0-inf): read-out: AUC0-inf; for MRT inf: read-out: MRT0-inf; for MRT last: read-out: MRT0-last; for Vd: read-out: Vdss
Protocol: Objectives: to compare the plasma pharmacokinetics and stability of Compound 1 with its non-phosphorylated SMDC analog (Int 1-4) and in plasma following a single intravenous infusion administration of Compound 1 at 11.6 mg/kg and 23.2 mg/kg with Int 1-4 (formulation F1 & F2) at 10.0 mg/kg in male CD-1 mice
PK measurements: compare PK parameters C0, CL, Vdss, Cmax, tmax, t1/2, AUC(0-t), AUC(0-inf), MRT(0-t), MRT(0-inf) for Compound 1 and Int 1-4

[3] = Compound 1 and gemcitabine plasma PK in the male cynomolgus monkey (study h); type: in vivo
Protocol: Objectives: to compare the plasma pharmacokinetics and stability of the Compound 1 with Int 1-4 and in plasma following a single intravenous infusion administration of Compound 1 at 5 mg/kg and 10 mg/kg with equimolar gemcitabine at 2.28 mg/kg in male cynomolgous monkeys.
PK measurements: compare PK parameters C0, CL, Vdss, Cmax, tmax, t1/2, AUC(0-t), AUC(0-inf), MRT(0-t), MRT(0-inf) for Compound 1 and Int 1-4 with gemcitabine.

[4] = Mouse plasma stability (Compound 1); type: in vitro ADME
[5] = Homo sapiens, 72 hours treatment
[6] = 11.6 mg/kg, after iv Compound 1 11.6 mg/kg
[7] = 23.2 mg/kg, after iv Compound 1 23.2 mg/kg
[8] = plasma, after iv Compound 1 5 mg/kg

SMILES: COc1cc(OC)c2oc(COC(=O)Nc3ccn([C@@H]4O[C@H](COP(=O)(O)O)[C@@H](O)C4(F)F)c(=O)n3)cc2c1 [Compound 1, ((2R,3R,5R)-5-(4-((((5,7-dimethoxybenzofuran-2-yl)methoxy)carbonyl)-amino)-2-oxopyrimidin-1(2H)-yl)-4,4-difluoro-3-hydroxytetrahydrofuran-2-yl)methyl hydrogen phosphate triethyl ammonium salt]
- IC50 (UT-SCC-5; Homo sapiens, UT-SCC-5, 72 hours treatment): 24 nM
- Cytotoxicity IC50 ratio Compound 1/Int 1-4 (UT-SCC-5; UT-SCC-5): 1.5
- Cytotoxicity IC50 ratio Compound 1/gemcitabine (UT-SCC-5; UT-SCC-5): 2.7
- IC50 (UT-SCC-8; Homo sapiens, UT-SCC-8, 72 hours treatment): 23 nM
- Cytotoxicity IC50 ratio Compound 1/Int 1-4 (UT-SCC-8; UT-SCC-8): 0.7
- Cytotoxicity IC50 ratio Compound 1/gemcitabine (UT-SCC-8; UT-SCC-8): 1.0
- IC50 (UT-SCC-9; Homo sapiens, UT-SCC-9, 72 hours treatment): 53 nM
- Cytotoxicity IC50 ratio Compound 1/Int 1-4 (UT-SCC-9; UT-SCC-9): 1.4
- Cytotoxicity IC50 ratio Compound 1/gemcitabine (UT-SCC-9; UT-SCC-9): 1.5
- IC50 (UT-SCC-10; Homo sapiens, UT-SCC-10, 72 hours treatment): 14 nM
- Cytotoxicity IC50 ratio Compound 1/Int 1-4 (UT-SCC-10; UT-SCC-10): 1.6
- Cytotoxicity IC50 ratio Compound 1/gemcitabine (UT-SCC-10; UT-SCC-10): 1.6
- IC50 (UT-SCC-14; Homo sapiens, UT-SCC-14, 72 hours treatment): 13 nM
- Cytotoxicity IC50 ratio Compound 1/Int 1-4 (UT-SCC-14; UT-SCC-14): 1.0
- Cytotoxicity IC50 ratio Compound 1/gemcitabine (UT-SCC-14; UT-SCC-14): 2.2
- Cytotoxicity IC50 ratio Compound 1/Int 1-4 (UT-SCC-16A): 0.5
- Cytotoxicity IC50 ratio Compound 1/gemcitabine (UT-SCC-16A): 1.2
- IC50 (UT-SCC-16A; [5]): 73 nM
- Cytotoxicity IC50 ratio Compound 1/Int 1-4 (UT-SCC-16B): 0.8
- Cytotoxicity IC50 ratio Compound 1/gemcitabine (UT-SCC-16B): 1.3
- IC50 (UT-SCC-16B; [5]): 130 nM
- Cytotoxicity IC50 ratio Compound 1/Int 1-4 (UT-SCC-24A): 0.9
- Cytotoxicity IC50 ratio Compound 1/gemcitabine (UT-SCC-24A): 1.3
- IC50 (UT-SCC-24A; [5]): 18 nM
- average ratio of cytotoxicity IC50 values Compound 1/Int 1-4 [1]: ~1
- average ratio of cytotoxicity IC50 values Compound 1/gemcitabine [1]: ~1.6
- solubility (Solubility / formulation): > 300 mg/mL
- AUC(0-t) [2, 6]: 202 ng·h/mL
- C0 [2, 6]: 21900 ng/mL
- clearance [2, 6]: 1970 mL/min/kg
- half-life [2, 6]: 52.9 s
- AUC(0-inf) [2, 6]: 202 ng·h/mL
- MRT inf [2, 6]: 39.2 s
- MRT last [2, 6]: 38.9 s
- Vd [2, 6]: 1.41 L/kg
- AUC(0-t) [2, 7]: 103 ng·h/mL
- C0 [2, 7]: 2330 ng/mL
- clearance [2, 7]: 5190 mL/min/kg
- half-life [2, 7]: 131 s
- AUC(0-inf) [2, 7]: 105 ng·h/mL
- MRT inf [2, 7]: 164 s
- MRT last [2, 7]: 153 s
- Vd [2, 7]: 12 L/kg
- VDss fold lower than Int 1-4 [3]: 10 fold
- AUC(0-t) [3, 8]: 1830 ng·h/mL
- C0 [3, 8]: 139000 ng/mL
- clearance [3, 8]: 46.5 mL/min/kg
- half-life [3, 8]: 36 s
- MRT inf ([3]; plasma, after iv Compound 1 5 mg/kg, read-out: MRT0-inf): 36 s
- MRT last ([3]; plasma, after iv Compound 1 5 mg/kg, read-out: MRT0-last): 36 s
- Vd ([3]; plasma, after iv Compound 1 5 mg/kg, read-out: Vdss): 0.0357 L/kg
- stability in mouse plasma [4]: stable
- Slope Mean ± SE ([4]; 3 μM, 37° C.): 0.00413 ± 0.000752
